These results are taken from US20250235456A1, “METHODS OF USE FOR AZA-QUINAZOLINE COMPOUNDS” (Iambic Therapeutics, Inc., priority 2024, published 2025).

Holding throughout (assay type): biochemical
One assay addresses CDK1/Cyclin B1 (Homo sapiens (Human), UniProt P06493). Nature of the assay: CDK1/Cyclin B1 ADP-Glo Kinase Assay. Here is the method:
CDK1/Cyclin B1 ADP-Glo Kinase Assay
(§1) The purpose of CDK1/Cyclin Bi assay is to evaluate the inhibition (% inhibition and IC50 values) of small molecule inhibitors by using a Luminescent based ADP-Glo assay. CDK1/Cyclin B1 catalyzes the production of ADP from ATP. ADP-Glo assay monitors ADP producing biochemical reactions. ADP-Glo is performed in 2 steps upon completion of kinase reaction: a combined termination of kinase reaction and depletion of remaining ATP in the first step, and conversion of generated ADP to ATP and the newly produced ATP to light output using luciferase/luciferin reaction in the second step. The luminescent signal generated is proportional to the ADP concentration produced and is correlated with the kinase activity. CDK1/Cyclin B1 was purchased from Carna (Cat 04-102). […] The assay was initiated with the addition of ATP-containing substrate solution, following a 30-minute pre-incubation of enzyme and inhibitor at room temperature in the reaction mixture. The reaction was stopped after 90 minutes at room temperature by the addition of 10 μL of ADP-GLO Reagent. After a 90 minute incubation, 20 μL of Kinase Detection Reagent was added. Samples were incubated for 40 minutes, after which plate well luminescence was measured on a Envision microplate reader. The IC50 determinations were made from a plot of the fractional velocity as a function of inhibitor concentration fit to the 4 parameters IC50 equation.
Background: ADP-Glo turns the ADP formed in a reaction into a luminescent signal.

For another assay, the target named is CDK6/Cyclin D3 (Homo sapiens (Human), UniProt Q00534). Kind of assay: CDK6/Cyclin D3 ADP-Glo Kinase Assay. Particulars: read-out: CDK6/CyclinD3 IC50. The procedure: CDK6/Cyclin D3 ADP-Glo Kinase Assay
Chain of CDK6/Cyclin D3 (Q00534 whole entry): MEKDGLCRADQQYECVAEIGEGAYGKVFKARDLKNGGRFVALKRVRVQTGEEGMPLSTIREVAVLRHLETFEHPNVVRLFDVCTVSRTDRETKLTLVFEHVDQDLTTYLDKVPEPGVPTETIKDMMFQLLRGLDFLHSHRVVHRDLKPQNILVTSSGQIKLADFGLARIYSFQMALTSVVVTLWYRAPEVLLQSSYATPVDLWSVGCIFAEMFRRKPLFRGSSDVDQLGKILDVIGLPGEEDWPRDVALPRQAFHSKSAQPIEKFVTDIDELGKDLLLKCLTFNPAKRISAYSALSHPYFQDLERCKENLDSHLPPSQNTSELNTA
Chain of CDK6/Cyclin D3 (P30281 whole entry partner): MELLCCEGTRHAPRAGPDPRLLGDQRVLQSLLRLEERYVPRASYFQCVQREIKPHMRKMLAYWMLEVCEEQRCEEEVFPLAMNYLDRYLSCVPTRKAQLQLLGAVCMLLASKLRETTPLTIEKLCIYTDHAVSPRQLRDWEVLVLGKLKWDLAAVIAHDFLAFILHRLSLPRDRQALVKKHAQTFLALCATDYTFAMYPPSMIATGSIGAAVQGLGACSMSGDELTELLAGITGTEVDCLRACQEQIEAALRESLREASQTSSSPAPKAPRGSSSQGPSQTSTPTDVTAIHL
as §1, with “of the CDK6/Cyclin D3” for “of CDK1/Cyclin Bi”, “values) in the presence” for “values)”, “assay. CDK6/Cyclin D3” for “assay. CDK1/Cyclin B1”, “activity. CDK6/Cychin D3” for “activity. CDK1/Cyclin B1”, “from Carna.” for “from Carna (Cat 04-102).”, “a 90-minute” for “a 90 minute”

A further assay deals with CDK4/Cyclin D1 (Homo sapiens (Human), UniProt P11802). Kind of assay: CDK4/Cyclin D1 CHEF Assay. Particulars: AQT; read-out: CDK4/CyclinD1 AQT IC50. From the text: CDK4/Cyclin D1 CHEF Assay
Chain of CDK4/Cyclin D1 (P11802 whole entry, species assumed): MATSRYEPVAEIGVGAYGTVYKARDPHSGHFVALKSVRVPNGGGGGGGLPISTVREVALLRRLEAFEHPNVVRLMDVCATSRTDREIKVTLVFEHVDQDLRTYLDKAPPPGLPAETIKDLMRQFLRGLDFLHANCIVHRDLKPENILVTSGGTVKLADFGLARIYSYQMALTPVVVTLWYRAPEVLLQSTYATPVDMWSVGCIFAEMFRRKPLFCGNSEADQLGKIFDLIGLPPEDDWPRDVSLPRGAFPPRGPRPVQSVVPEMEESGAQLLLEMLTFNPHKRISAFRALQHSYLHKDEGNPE
Chain of CDK4/Cyclin D1 (P24385 whole entry partner, species assumed): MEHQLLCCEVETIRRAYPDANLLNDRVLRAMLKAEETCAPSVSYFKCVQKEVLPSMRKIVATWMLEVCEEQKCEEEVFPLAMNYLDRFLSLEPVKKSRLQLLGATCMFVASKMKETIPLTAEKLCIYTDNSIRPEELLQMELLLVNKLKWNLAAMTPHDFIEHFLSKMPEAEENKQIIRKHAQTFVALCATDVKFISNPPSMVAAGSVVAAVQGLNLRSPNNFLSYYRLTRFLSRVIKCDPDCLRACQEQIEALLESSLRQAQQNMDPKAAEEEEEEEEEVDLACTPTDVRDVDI
The purpose of CDK4/Cyclin Dl assay is to evaluate the inhibition (% inhibition and IC50 values) of small molecule inhibitors by using a Chelation-Enhance Fluorescence (CHEF) assay. In a CHEF assay, phosphorylation of a peptide substrate results in proportional increase in fluorescence. CHEF kinase assay use peptide substrates containing a synthetic alpha-amino acid with a side chain bearing an 8-hydroxyquinoline derivative (sulfonamido-oxide, Sox). Upon phosphorylation of a nearby serine, threonine or tyrosine and in the presence of Mg(II), the spectral properties of the Sox residue are altered, emitting 485 nm wavelength light when excited with a 360 nm wavelength light source. CDK4/Cyclin D1 catalyzes the phosphoryl transfer to the SOX-labeled substrate peptide AQT0258 from Assayquant Technologies. […] The reaction was initiated with the addition of substrate solution, following a 30-minute pre-incubation of enzyme and inhibitor at 22° C. in the reaction mix. Reactions were allowed to proceed for 3 hrs at 22° C., followed by fluorescence read of the reaction. The IC50 determinations were made from a plot of the fractional velocity as a function of inhibitor concentration fit to the 4 parameters IC50 equation.

Bounds are passed on as bounds.

Chain of CDK1/Cyclin B1 (P06493 whole entry): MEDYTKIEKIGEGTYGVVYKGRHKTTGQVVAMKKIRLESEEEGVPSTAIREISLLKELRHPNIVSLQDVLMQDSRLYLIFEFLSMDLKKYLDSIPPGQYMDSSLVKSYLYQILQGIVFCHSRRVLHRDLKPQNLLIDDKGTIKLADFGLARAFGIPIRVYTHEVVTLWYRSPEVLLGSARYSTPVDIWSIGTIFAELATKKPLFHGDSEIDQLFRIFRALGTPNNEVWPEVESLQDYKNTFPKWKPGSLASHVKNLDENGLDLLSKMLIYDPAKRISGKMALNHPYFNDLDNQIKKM
Chain of CDK1/Cyclin B1 (P14635 whole entry partner): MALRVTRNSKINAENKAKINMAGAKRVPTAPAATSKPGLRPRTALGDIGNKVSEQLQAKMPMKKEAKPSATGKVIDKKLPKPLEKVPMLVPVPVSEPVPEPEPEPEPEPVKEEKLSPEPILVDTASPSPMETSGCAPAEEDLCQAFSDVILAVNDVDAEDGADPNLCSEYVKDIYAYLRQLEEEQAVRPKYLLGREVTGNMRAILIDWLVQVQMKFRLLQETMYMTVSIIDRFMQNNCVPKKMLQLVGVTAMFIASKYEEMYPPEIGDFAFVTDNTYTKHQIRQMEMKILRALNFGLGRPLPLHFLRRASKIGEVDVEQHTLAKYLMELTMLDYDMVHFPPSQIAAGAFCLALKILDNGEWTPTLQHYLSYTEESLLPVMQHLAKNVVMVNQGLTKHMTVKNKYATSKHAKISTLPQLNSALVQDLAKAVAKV

As to `Cc1cc2cnc(NC3CCN(S(=O)(=O)C4CC4)CC3)nc2c(N2CC(F)(F)C3(CNC3)C2)n1` [Compound 62, N-(1-(cyclopropylsulfonyl)piperidin-4-yl)-8-(8,8-difluoro-2,6-diazaspiro[3.4]octan-6-yl)-6-methylpyrido[3,4-d]pyrimidin-2-amine], the IC50 against CDK1/Cyclin B1, at CDK6/Cyclin D3 and at CDK4/Cyclin D1 was below 200 nM in each case.

For the molecule `CS(=O)(=O)N1CCC(Nc2ncc3cc(C(F)F)nc(N4CC5(CNCCC5(F)F)C4)c3n2)CC1` [Compound 65], the IC50 on CDK1/Cyclin B1, on CDK6/Cyclin D3 and on CDK4/Cyclin D1 was below 200 nM in each case.

Consider `COC1CC2(C1)CN(c1nc(C)cc3cnc(NC4CCN(S(=O)(=O)C5CC5)CC4)nc13)C2` [Compound 71, N-(1-(cyclopropylsulfonyl)piperidin-4-yl)-8-(6-methoxy-2-azaspiro[3.3]heptan-2-yl)-6-methylpyrido[3,4-d]pyrimidin-2-amine], for which the IC50 on CDK1/Cyclin B1 was 200 to 500 nM; on CDK6/Cyclin D3 it was below 200 nM; at CDK4/Cyclin D1 it was below 200 nM.

`COC1CC2(C1)CN(c1nc(C3CC3)cc3cnc(NC4CCN(S(C)(=O)=O)CC4)nc13)C2` [Compound 75, 6-cyclopropyl-8-(6-methoxy-2-azaspiro[3.3]heptan-2-yl)-N-(1-(methylsulfonyl)piperidin-4-yl)pyrido[3,4-d]pyrimidin-2-amine]: the IC50 is above 2000 nM against CDK1/Cyclin B1, below 200 nM at CDK6/Cyclin D3 and below 200 nM at CDK4/Cyclin D1.

For `COC1CC2(C1)CN(c1nc(C)cc3cnc(NC4CCN(S(C)(=O)=O)CC4)nc13)C2` [Compound 76, 8-(6-methoxy-2-azaspiro[3.3]heptan-2-yl)-6-methyl-N-(1-(methylsulfonyl)piperidin-4-yl)pyrido[3,4-d]pyrimidin-2-amine], the values for the IC50 against CDK1/Cyclin B1, at CDK6/Cyclin D3 and on CDK4/Cyclin D1 were 200 to 500 nM, below 200 nM and below 200 nM, respectively.

Regarding `Cc1cc2cnc(NC3CCN(S(C)(=O)=O)CC3)nc2c(N2CC3(CCC(=O)N3)C2)n1` [Compound 77, 2-(6-methyl-2-((1-(methylsulfonyl)piperidin-4-yl)amino)pyrido[3,4-d]pyrimidin-8-yl)-2,5-diazaspiro[3.4] octan-6-one], the results for the IC50 at CDK1/Cyclin B1, at CDK6/Cyclin D3 and at CDK4/Cyclin D1 were 200 to 500 nM, below 200 nM and below 200 nM, respectively.

On to `Cc1cc2cnc(NC3CCN(S(=O)(=O)C4CC4)CC3)nc2c(N2CC3(C2)CC(C)(O)C3)n1` [Compound 78, 2-(2-((1-(cyclopropylsulfonyl)piperidin-4-yl)amino)-6-methylpyrido[3,4-d]pyrimidin-8-yl)-6-methyl-2-azaspiro[3.3]heptan-6-ol], for which the IC50 was 200 to 500 nM against CDK1/Cyclin B1, 200 to 500 nM on CDK6/Cyclin D3 and below 200 nM at CDK4/Cyclin D1.

On to `Cc1cc2cnc(NC3CCN(S(C)(=O)=O)CC3)nc2c(N2CC3(C2)CC(C)(O)C3)n1` [Compound 79, 6-methyl-2-(6-methyl-2-((1-(methylsulfonyl)piperidin-4-yl)amino)pyrido[3,4-d]pyrimidin-8-yl)-2-azaspiro[3.3]heptan-6-ol], for which the IC50 against CDK1/Cyclin B1 was 200 to 500 nM; on CDK6/Cyclin D3, 200 to 500 nM; on CDK4/Cyclin D1 it was below 200 nM.

On to `Cc1cc2cnc(NC3CCN(S(C)(=O)=O)CC3)nc2c(N2CC3(CNC(=O)C3)C2)n1` [Compound 81, 2-(6-methyl-2-((1-(methylsulfonyl)piperidin-4-yl)amino)pyrido[3,4-d]pyrimidin-8-yl)-2,6-diazaspiro[3.4] octan-7-one], for which the results for the IC50 on CDK1/Cyclin B1, at CDK6/Cyclin D3 and on CDK4/Cyclin D1 were 200 to 500 nM, 200 to 500 nM and below 200 nM, respectively.

With `Cc1cc2cnc(NC3CCN(S(C)(=O)=O)CC3)nc2c(N2CC3(CCC(=O)NC3)C2)n1` [Compound 82, 2-(6-methyl-2-((1-(methylsulfonyl)piperidin-4-yl)amino)pyrido[3,4-d]pyrimidin-8-yl)-2,6-diazaspiro[3.5] nonan-7-one], the IC50 at CDK1/Cyclin B1, on CDK6/Cyclin D3 and at CDK4/Cyclin D1 was 200 to 500 nM in each case.
